Assay results from patent publication US11141384B2, “Long-acting formulations” (Janssen Pharmaceutica NV, priority 2017, dated 2021).
Where two headings read alike, the source gives them in different places.

How the values were obtained:
[1] = in vivo; cited from earlier work
[2] = test system: M. tuberculosis H37Rv; format: in vivo, Mycobacterium tuberculosis; settings: for Mean (SD) log10 M. tuberculosis CFU/lung: 5 days per week
[3] = test system: M lepra; settings: cited from earlier work
[4] = Oral (PO) 13 week toxicity study, comparison with dog IM/SC exposure; format: in vivo, beagle dog; settings: 13 week PO study, 18 mg/kg
[5] = Oral (PO) 13 week toxicity study in rats, total exposure; format: in vivo; settings: rat, top dose of 13 week study
[6] = molecular target: mycobacterial ATP synthase (Mycobacterium tuberculosis, UniProt P9WPS1+P9WPV7); settings: cited from earlier work

Compound: CNCC[C@@](O)(c1cccc2ccccc12)[C@H](c1ccccc1)c1cc2cc(Br)ccc2nc1OC [Formulation M2]
- mean terminal elimination half-life [1]: approximately 5.5 months

Compound: CO[C@H]1/C=C/O[C@@]2(C)Oc3c(C)c(O)c4c(O)c(c(/C=N/N5CCN(C)CC5)c(O)c4c3C2=O)NC(=O)/C(C)=C\C=C\[C@H](C)[C@H](O)[C@@H](C)[C@@H](O)[C@@H](C)[C@H](OC(C)=O)[C@@H]1C [R, rifampin]
- reduction of mean M. tuberculosis lung CFU count compared to untreated mice ([2]; 10 mg/kg by gavage 5/7, after 4 weeks of treatment): approximately 1 log10 CFU/lung
- reduction of mean M. tuberculosis lung CFU count compared to untreated mice ([2]; 10 mg/kg by gavage 5/7, after 8 weeks of treatment): about 2 log10 CFU/lung
- reduction of mean M. tuberculosis lung CFU count compared to untreated mice ([2]; 10 mg/kg by gavage 5/7, after 12 weeks of treatment): ~3 log10 CFU/lung
- Mean (SD) log10 M. tuberculosis CFU/lung ([2]; regimen R10 (5/7): rifampin 10 mg/kg, Week 4 of treatment): 3.39 (0.46) log10 CFU/lung
- Mean (SD) log10 M. tuberculosis CFU/lung ([2]; regimen R10 (5/7): rifampin 10 mg/kg, Week 8 of treatment): 2.74 (0.62) log10 CFU/lung
- Mean (SD) log10 M. tuberculosis CFU/lung ([2]; regimen R10 (5/7): rifampin 10 mg/kg, Week 12 of treatment): 1.27 (0.85) log10 CFU/lung

Compound: COc1nc2ccc(Br)cc2cc1[C@@H](c1ccccc1)[C@@](O)(CCN(C)C)c1cccc2ccccc12 [bedaquiline]
- mean terminal elimination half-life [1]: approximately 5.5 months
- minimal dose killing 99% of bacilli [3]: < 5.0 mg/kg/wk
- total exposure after PO for the same period [4]: 13 988 520 ng·h/mL
- total exposure after PO administration during 3 months [5]: 2 385 383 ng·h/mL
- selectivity index for mycobacterial ATP synthase versus eukaryotic mitochondrial ATP synthase [6]: more than 20000
- decline in lung CFU compared to untreated control mice ([2]; 2.67 mg/kg by gavage 5/7, 12 weeks (total 160 mg/kg)): 1.7 log10 CFU/lung
- decline in lung CFU counts ([2]; 5.33 mg/kg by gavage 5/7, 12 weeks (total 320 mg/kg)): about 3 log10 CFU/lung
- additional decrease of lung CFU counts ([2]; 8 mg/kg by gavage 5/7, 8 weeks versus 4 weeks): 1 log10
- decline in lung CFU relative to untreated mice ([2]; 8 mg/kg by gavage 5/7, four weeks): about 1.5 log10 CFU/lung
- reduction of M. tuberculosis lung CFU compared to untreated mice ([2]; 25 mg/kg by gavage 5/7, after 4 weeks): about 1.7 log10 CFU/lung
- reduction of M. tuberculosis lung CFU compared to untreated mice ([2]; 25 mg/kg by gavage 5/7, after 8 weeks): ~4.0 log10 CFU/lung
- reduction of M. tuberculosis lung CFU compared to untreated mice ([2]; 25 mg/kg by gavage 5/7, after 12 weeks): ~4.9 log10 CFU/lung
- Mean (SD) log10 M. tuberculosis CFU/lung ([2]; regimen B2.67 (5/7): oral bedaquiline 2.67 mg/kg, Week 4 of treatment): 3.96 (0.35) log10 CFU/lung
- Mean (SD) log10 M. tuberculosis CFU/lung ([2]; regimen B2.67 (5/7): oral bedaquiline 2.67 mg/kg, Week 8 of treatment): 3.52 (0.38) log10 CFU/lung
- Mean (SD) log10 M. tuberculosis CFU/lung ([2]; regimen B2.67 (5/7): oral bedaquiline 2.67 mg/kg, Week 12 of treatment): 3.16 (0.24) log10 CFU/lung
- Mean (SD) log10 M. tuberculosis CFU/lung ([2]; regimen B5.33 (5/7): oral bedaquiline 5.33 mg/kg, Week 4 of treatment): 3.83 (0.25) log10 CFU/lung
- Mean (SD) log10 M. tuberculosis CFU/lung ([2]; regimen B5.33 (5/7): oral bedaquiline 5.33 mg/kg, Week 8 of treatment): 3.15 (0.47) log10 CFU/lung
- Mean (SD) log10 M. tuberculosis CFU/lung ([2]; regimen B5.33 (5/7): oral bedaquiline 5.33 mg/kg, Week 12 of treatment): 1.98 (0.17) log10 CFU/lung
- Mean (SD) log10 M. tuberculosis CFU/lung ([2]; regimen B8 (5/7): oral bedaquiline 8 mg/kg, Week 4 of treatment): 3.30 (0.12) log10 CFU/lung
- Mean (SD) log10 M. tuberculosis CFU/lung ([2]; regimen B8 (5/7): oral bedaquiline 8 mg/kg, Week 8 of treatment): 2.42 (0.26) log10 CFU/lung
- Mean (SD) log10 M. tuberculosis CFU/lung ([2]; regimen B8 (5/7): oral bedaquiline 8 mg/kg, Week 12 of treatment): 0.69 (0.43) log10 CFU/lung
- Mean (SD) log10 M. tuberculosis CFU/lung ([2]; regimen B25 (5/7): oral bedaquiline 25 mg/kg, Week 4 of treatment): 3.01 (0.45) log10 CFU/lung
- Mean (SD) log10 M. tuberculosis CFU/lung ([2]; regimen B25 (5/7): oral bedaquiline 25 mg/kg, Week 8 of treatment): 0.82 (0.49) log10 CFU/lung
- Mean (SD) log10 M. tuberculosis CFU/lung ([2]; regimen B25 (5/7): oral bedaquiline 25 mg/kg, Week 12 of treatment): 0.07 (0.09) log10 CFU/lung
